Data reported in US9695154B2, “Heteroaryl inhibitors of sumo activating enzyme” (MILLENNIUM PHARMACEUTICALS, INC., priority 2013, dated 2017).

Molecular target: T1, recombinant human SAE enzyme (Homo sapiens, UniProt Q9UBT2)
T1 sequence (Q9UBT2 1-640): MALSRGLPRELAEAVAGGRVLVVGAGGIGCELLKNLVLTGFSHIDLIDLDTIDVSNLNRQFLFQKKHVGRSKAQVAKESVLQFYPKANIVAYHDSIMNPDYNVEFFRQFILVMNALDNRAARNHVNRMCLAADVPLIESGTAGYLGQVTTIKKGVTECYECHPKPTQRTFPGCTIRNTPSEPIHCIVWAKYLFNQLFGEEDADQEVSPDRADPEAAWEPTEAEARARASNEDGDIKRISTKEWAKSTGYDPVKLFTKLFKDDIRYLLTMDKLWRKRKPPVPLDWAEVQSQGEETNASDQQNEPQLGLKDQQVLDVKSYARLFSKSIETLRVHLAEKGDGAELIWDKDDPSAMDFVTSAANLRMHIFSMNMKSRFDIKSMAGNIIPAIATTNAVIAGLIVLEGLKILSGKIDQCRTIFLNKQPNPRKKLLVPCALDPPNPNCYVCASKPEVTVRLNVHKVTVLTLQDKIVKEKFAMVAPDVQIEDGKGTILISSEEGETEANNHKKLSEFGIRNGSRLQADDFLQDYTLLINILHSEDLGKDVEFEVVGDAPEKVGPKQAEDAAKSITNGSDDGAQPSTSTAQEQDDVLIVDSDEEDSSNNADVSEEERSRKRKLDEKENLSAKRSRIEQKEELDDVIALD
T1 sequence (Q9UBE0 1-346 partner): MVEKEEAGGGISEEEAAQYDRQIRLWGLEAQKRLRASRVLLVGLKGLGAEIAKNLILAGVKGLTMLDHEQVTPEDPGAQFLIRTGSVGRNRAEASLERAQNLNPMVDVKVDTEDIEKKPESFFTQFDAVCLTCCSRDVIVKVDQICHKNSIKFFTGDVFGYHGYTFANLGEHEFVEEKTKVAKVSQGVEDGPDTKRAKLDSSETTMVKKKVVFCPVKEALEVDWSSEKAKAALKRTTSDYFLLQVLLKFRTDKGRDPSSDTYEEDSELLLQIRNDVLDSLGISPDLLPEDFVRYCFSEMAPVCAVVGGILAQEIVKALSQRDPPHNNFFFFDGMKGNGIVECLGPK
Assay: SAE HTRF Enzyme Assay
Type: biochemical
Conditions: for IC50: class symbols A-C; for Percent Inhibition / inhibition at 0.111 µM: compound concentration 0.111 μM; for inhibition at 0.111 µM: read-out: Percent Inhibition
In short: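 SAE 0.11 nM; ATP 0.5 μM; Sumo-Flag 0.125 μM; Ubc9-GST 0.01 μM; 250 μM GSH, 5 mM MgCl2, pH 7.5. 105 min, 24° C. EDTA/KF stop plus Eu/APC antibodies, 2 h, TR-FRET. % inhibition or IC50.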

SMILES | IC50 | Percent Inhibition (0.111 µM) | inhibition at 0.111 µM | Percent Inhibition
Cc1cc(C(=O)c2cncnc2N[C@@H]2C[C@H](COS(N)(=O)=O)[C@@H](O)C2)nn1C(C)c1cccc(Cl)c1 (single isomer, unassigned) [Compound I-365, [(1R,2S,4R)-4-{[5-({1-[(1S)-1-(3-chlorophenyl)ethyl]-5-methyl-1H-pyrazol-3-yl}carbonyl)pyrimidin-4-yl]amino}-2-hydroxycyclopentyl]methyl sulfamate or [(1R,2S,4R)-4-{[5-({1-[(1R)-1-(3-chlorophenyl)ethyl]-5-methyl-1H-pyrazol-3-yl}carbonyl)pyrimidin-4-yl]amino}-2-hydroxycyclopentyl]methyl sulfamate] | 10 to 100 nM | 79% |  | 
CC(c1cccc(Br)n1)n1ccc(C(=O)c2cncnc2N[C@@H]2C[C@H](COS(N)(=O)=O)[C@@H](O)C2)n1 (single isomer, unassigned) [Compound I-366, [(1R,2S,4R)-4-{[5-({1-[(1S)-1-(6-bromopyridin-2-yl)ethyl]-1H-pyrazol-3-yl}carbonyl)pyrimidin-4-yl]amino}-2-hydroxycyclopentyl]methyl sulfamate or [(1R,2S,4R)-4-{[5-({1-[(1R)-1-(6-bromopyridin-2-yl)ethyl]-1H-pyrazol-3-yl}carbonyl)pyrimidin-4-yl]amino}-2-hydroxycyclopentyl]methyl sulfamate] | 10 to 100 nM |  | 92% | 
COC(C)c1cc(C(=O)c2cncnc2N[C@@H]2C[C@H](COS(N)(=O)=O)[C@@H](O)C2)nn1Cc1cccc(Br)c1 (single isomer, unassigned) [Compound I-369a, [(1R,2S,4R)-4-{[5-({1-(3-bromobenzyl)-5-[(1S)-1-methoxyethyl]-1H-pyrazol-3-yl}carbonyl)pyrimidin-4-yl]amino}-2-hydroxycyclopentyl]methyl sulfamate or [(1R,2S,4R)-4-{[5-({1-(3-bromobenzyl)-5-[(1R)-1-methoxyethyl]-1H-pyrazol-3-yl}carbonyl)pyrimidin-4-yl]amino}-2-hydroxycyclopentyl]methyl sulfamate] | < 10 nM |  |  | 98%
COC(C)c1cc(C(=O)c2cncnc2N[C@@H]2C[C@H](COS(N)(=O)=O)[C@@H](O)C2)nn1Cc1cccc(Br)c1 (single isomer, unassigned) [Compound I-369b, [(1R,2S,4R)-4-{[5-({1-(3-bromobenzyl)-5-[(1S)-1-methoxyethyl]-1H-pyrazol-3-yl}carbonyl)pyrimidin-4-yl]amino}-2-hydroxycyclopentyl]methyl sulfamate or [(1R,2S,4R)-4-{[5-({1-(3-bromobenzyl)-5-[(1R)-1-methoxyethyl]-1H-pyrazol-3-yl}carbonyl)pyrimidin-4-yl]amino}-2-hydroxycyclopentyl]methyl sulfamate] | < 10 nM |  |  | 98%
NS(=O)(=O)OC[C@H]1C[C@@H](Nc2ncncc2C(=O)c2ccn(S(=O)(=O)c3cccc(Br)c3)n2)[C@H](O)[C@@H]1O [Compound I-1, [(1R,2R,3S,4R)-4-{[5-({1-[(3-bromophenyl)sulfonyl]-1H-pyrazol-3-yl}carbonyl)pyrimidin-4-yl]amino}-2,3-dihydroxycyclopentyl]methyl sulfamate] | < 10 nM |  | 98% | 
NS(=O)(=O)OC[C@@H]1C[C@@H](Nc2ncncc2C(=O)c2ccn(Cc3cccc(Br)c3)n2)C[C@@H]1O [Compound I-2, {(1S,2S,4R)-4-[(5-{[1-(3-bromobenzyl)-1H-pyrazol-3-yl]carbonyl}pyrimidin-4-yl)amino]-2-hydroxycyclopentyl}methyl sulfamate] |  |  | 99% | 
NS(=O)(=O)OC[C@H]1C[C@@H](Nc2ncncc2C(=O)c2ccn(Cc3cccc(C(F)(F)F)n3)n2)C[C@@H]1O [Compound I-3, [(1R,2S,4R)-2-hydroxy-4-({5-[(1-{[6-(trifluoromethyl)pyridin-2-yl]methyl}-1H-pyrazol-3-yl)carbonyl]pyrimidin-4-yl}amino)cyclopentyl]methyl sulfamate] | < 10 nM |  | 98% | 
Cc1ccn(CCn2ccc(C(=O)c3cncnc3N[C@@H]3C[C@H](COS(N)(=O)=O)[C@@H](O)[C@H]3O)n2)n1 [Compound I-4, [(1R,2R,3S,4R)-2,3-dihydroxy-4-{[5-({1-[2-(3-methyl-1H-pyrazol-1-yl)ethyl]-1H-pyrazol-3-yl}carbonyl)pyrimidin-4-yl]amino}cyclopentyl]methyl sulfamate] | 10 to 100 nM |  | 80% | 
NS(=O)(=O)OC[C@H]1C[C@@H](Nc2ncncc2C(=O)c2ccn(CC3=CCOCC3)c2)[C@@H](F)[C@@H]1O [Compound I-5, {(1R,2R,3R,4R)-4-[(5-{[1-(3,6-dihydro-2H-pyran-4-ylmethyl)-1H-pyrrol-3-yl]carbonyl}pyrimidin-4-yl)amino]-3-fluoro-2-hydroxycyclopentyl}methyl sulfamate] | 10 to 100 nM |  | 89% | 
Cc1cc(C(=O)c2cncnc2N[C@@H]2C[C@@H](COS(N)(=O)=O)[C@@H](O)C2)nn1Cc1cccc(Br)c1 [Compound I-6, {(1S,2S,4R)-4-[(5-{[1-(3-bromobenzyl)-5-methyl-1H-pyrazol-3-yl]carbonyl}pyrimidin-4-yl)amino]-2-hydroxycyclopentyl}methyl sulfamate] | < 10 nM |  | 99% | 
NS(=O)(=O)OC[C@H]1C[C@@H](Nc2ncncc2C(=O)c2ccn(Cc3cccc(C(F)(F)F)c3)c2)[C@@H](F)[C@@H]1O [Compound I-7, [(1R,2R,3R,4R)-3-fluoro-2-hydroxy-4-{[5-({1-[3-(trifluoromethyl)benzyl]-lH-pyrrol-3-yl}carbonyl)pyrimidin-4-yl]amino}cyclopentyl]methyl sulfamate] | < 10 nM |  | 99% | 
NS(=O)(=O)OC[C@H]1C[C@@H](Nc2ncncc2C(=O)c2ccn(Cc3cccc(Cl)n3)c2)[C@@H](F)[C@@H]1O [Compound I-8, [(1R,2R,3R,4R)-4-{[5-({1-[(6-Chloropyridin-2-yl)methyl]-1H-pyrrol-3-yl}carbonyl)pyrimidin-4-yl]amino}-3-fluoro-2-hydroxycyclopentyl]methyl sulfamate] | < 10 nM |  | 99% | 
NS(=O)(=O)OC[C@H]1C[C@@H](Nc2ncncc2C(=O)c2ccn(Cc3cccc(Br)c3)n2)C[C@@H]1O [Compound I-11, {(1R,2S,4R)-4-[(5-{[1-(3-bromobenzyl)-1H-pyrazol-3-yl]carbonyl}pyrimidin-4-yl)amino]-2-hydroxycyclopentyl}methyl sulfamate] |  |  | 100% | 
NS(=O)(=O)OC[C@H]1C[C@@H](Nc2ncncc2C(=O)c2ccn(CC#CCC3CCOCC3)n2)C[C@@H]1O [Compound I-12, [(1R,2S,4R)-2-hydroxy-4-{[5-({1-[4-(tetrahydro-2H-pyran-4-yl)but-2-yn-1-yl]-1H-pyrazol-3-yl}carbonyl)pyrimidin-4-yl]amino}cyclopentyl]methyl sulfamate] | 100 to 1000 nM |  | 39% | 
NS(=O)(=O)OC[C@H]1C[C@@H](Nc2ncncc2C(=O)c2ccn(Cc3cccc(I)c3)c2)[C@@H](F)[C@@H]1O [Compound I-13, {(1R,2R,3R,4R)-3-fluoro-2-hydroxy-4-[(5-{[1-(3-iodobenzyl)-1H-pyrrol-3-yl]carbonyl}pyrimidin-4-yl)amino]cyclopentyl}methyl sulfamate] | < 10 nM |  | 100% | 
Cc1cc(Cn2ccc(C(=O)c3cncnc3N[C@@H]3C[C@H](COS(N)(=O)=O)[C@@H](O)C3)n2)ccc1F [Compound I-14, {(1R,2S,4R)-4-[(5-{[1-(4-fluoro-3-methylbenzyl)-1H-pyrazol-3-yl]carbonyl}pyrimidin-4-yl)amino]-2-hydroxycyclopentyl}methyl sulfamate] | < 10 nM |  | 98% | 
NS(=O)(=O)OC[C@H]1C[C@@H](Nc2ncncc2C(=O)c2ccn(Cc3cccc(Br)c3)n2)[C@@H](F)[C@@H]1O [Compound I-15, {(1R,2R,3R,4R)-4-[(5-{[1-(3-bromobenzyl)-1H-pyrazol-3-yl]carbonyl}pyrimidin-4-yl)amino]-3-fluoro-2-hydroxycyclopentyl}methyl sulfamate] | < 10 nM |  | 98% | 
NS(=O)(=O)OC[C@H]1C[C@@H](Nc2ncncc2C(=O)c2ccn(Cc3c(F)ccc(F)c3F)n2)C[C@@H]1O [Compound I-16, {(1R,2S,4R)-2-hydroxy-4-[(5-{[1-(2,3,6-trifluorobenzyl)-1H-pyrazol-3-yl]carbonyl}pyrimidin-4-yl)amino]cyclopentyl}methyl sulfamate] | < 10 nM |  | 98% | 
